Data taken from patent US10457655B2, “Compounds and compositions for inhibition of FASN” (FORMA Therapeutics, Inc., priority 2013, dated 2019).

What follows are molecules tested against FASN enzyme (Homo sapiens, UniProt P49327) (assay: Enzymatic Assay for FASN Inhibitors).
Format: biochemical
How it was run: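 40 nM FASN preincubated with compound 60 min at 25° C in HEPES pH 7.3 buffer with 0.04% Triton X-100. Then 20 μM acetyl-CoA, 60 μM malonyl-CoA and 100 μM NADPH added for 90 min, quenched with CPM thiol probe; fluorescence 360/530 nm, IC50 by four-parameter fit.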

Chain of FASN enzyme (P49327 whole entry): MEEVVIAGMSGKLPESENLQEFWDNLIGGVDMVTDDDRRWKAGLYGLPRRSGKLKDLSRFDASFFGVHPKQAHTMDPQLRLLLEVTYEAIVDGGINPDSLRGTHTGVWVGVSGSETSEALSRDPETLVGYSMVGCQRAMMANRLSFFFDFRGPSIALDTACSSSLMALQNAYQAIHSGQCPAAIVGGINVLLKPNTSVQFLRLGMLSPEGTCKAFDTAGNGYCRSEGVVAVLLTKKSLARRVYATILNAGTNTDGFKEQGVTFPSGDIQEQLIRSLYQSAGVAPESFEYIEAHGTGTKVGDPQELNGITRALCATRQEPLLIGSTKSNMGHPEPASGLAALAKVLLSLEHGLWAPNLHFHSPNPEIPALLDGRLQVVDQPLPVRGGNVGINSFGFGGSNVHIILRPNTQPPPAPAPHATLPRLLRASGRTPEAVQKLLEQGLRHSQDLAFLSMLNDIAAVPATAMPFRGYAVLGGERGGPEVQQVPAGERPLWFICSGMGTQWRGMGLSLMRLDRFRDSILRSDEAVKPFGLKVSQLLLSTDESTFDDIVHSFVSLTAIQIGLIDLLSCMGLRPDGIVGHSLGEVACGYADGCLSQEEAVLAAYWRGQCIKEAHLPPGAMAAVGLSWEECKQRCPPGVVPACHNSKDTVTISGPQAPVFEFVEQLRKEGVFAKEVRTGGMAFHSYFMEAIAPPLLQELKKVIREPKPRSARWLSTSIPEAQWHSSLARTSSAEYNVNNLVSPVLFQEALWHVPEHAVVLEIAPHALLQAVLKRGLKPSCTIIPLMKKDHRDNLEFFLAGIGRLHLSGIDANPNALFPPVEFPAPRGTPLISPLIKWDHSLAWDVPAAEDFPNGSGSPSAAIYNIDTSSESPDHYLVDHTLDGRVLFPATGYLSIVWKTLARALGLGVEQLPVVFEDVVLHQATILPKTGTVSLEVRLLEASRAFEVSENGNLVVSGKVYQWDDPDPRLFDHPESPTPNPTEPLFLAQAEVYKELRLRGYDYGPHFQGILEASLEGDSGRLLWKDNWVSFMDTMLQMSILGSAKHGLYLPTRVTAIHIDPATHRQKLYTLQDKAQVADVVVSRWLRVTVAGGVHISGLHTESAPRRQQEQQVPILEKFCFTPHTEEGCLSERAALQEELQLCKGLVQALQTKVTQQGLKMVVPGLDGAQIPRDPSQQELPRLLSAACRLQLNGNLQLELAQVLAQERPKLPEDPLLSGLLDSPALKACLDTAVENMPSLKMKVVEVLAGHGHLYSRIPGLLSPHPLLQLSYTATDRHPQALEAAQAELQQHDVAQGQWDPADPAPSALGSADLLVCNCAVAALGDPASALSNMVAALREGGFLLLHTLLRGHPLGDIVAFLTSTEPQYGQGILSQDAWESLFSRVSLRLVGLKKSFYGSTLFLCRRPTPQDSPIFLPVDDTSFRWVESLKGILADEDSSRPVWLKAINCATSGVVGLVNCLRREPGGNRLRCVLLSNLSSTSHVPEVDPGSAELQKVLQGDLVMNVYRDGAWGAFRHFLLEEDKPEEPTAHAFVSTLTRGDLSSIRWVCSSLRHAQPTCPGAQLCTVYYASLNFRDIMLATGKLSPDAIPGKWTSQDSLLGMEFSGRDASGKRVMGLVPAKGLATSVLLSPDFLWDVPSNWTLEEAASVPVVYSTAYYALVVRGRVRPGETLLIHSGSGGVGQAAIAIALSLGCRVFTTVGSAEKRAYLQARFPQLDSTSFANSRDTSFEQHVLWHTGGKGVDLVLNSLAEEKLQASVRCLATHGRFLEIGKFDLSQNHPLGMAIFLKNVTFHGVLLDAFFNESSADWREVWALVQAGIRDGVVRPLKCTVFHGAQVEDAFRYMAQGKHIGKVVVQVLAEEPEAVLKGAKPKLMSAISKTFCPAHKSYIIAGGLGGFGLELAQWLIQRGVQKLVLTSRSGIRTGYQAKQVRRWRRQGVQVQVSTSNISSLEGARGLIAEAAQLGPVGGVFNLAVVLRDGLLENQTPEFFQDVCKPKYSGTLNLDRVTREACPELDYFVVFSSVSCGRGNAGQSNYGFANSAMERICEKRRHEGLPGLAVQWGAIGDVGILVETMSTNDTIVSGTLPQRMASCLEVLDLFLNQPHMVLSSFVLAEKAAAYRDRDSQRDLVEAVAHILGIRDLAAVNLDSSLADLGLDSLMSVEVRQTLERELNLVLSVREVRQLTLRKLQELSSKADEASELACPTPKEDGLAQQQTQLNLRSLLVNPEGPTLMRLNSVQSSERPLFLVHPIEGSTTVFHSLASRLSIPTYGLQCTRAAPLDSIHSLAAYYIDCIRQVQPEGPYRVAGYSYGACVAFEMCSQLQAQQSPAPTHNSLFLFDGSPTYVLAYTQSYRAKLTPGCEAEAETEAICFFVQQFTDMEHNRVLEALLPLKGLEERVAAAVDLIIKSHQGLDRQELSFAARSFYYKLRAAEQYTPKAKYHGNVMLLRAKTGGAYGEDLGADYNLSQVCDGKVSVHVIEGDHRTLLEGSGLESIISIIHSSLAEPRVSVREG

IC50, < 500 nM:
Nc1n[nH]c2cc(-c3ccc(C(=O)N4CCN(C(=O)C5(O)CC5)CC4)cc3)ccc12 [1-{4-[4-(3-amino-1H-indazol-6-yl)benzoyl]piperazine-1-carbonyl}cyclopropan-1-ol]
O=C(c1ccc(-c2ccc3c(C4CC4)n[nH]c3c2)cc1)N1CCN(C(=O)C2(O)CC2)CC1 [1-{4-[4-(3-cyclopropyl-1H-indazol-6-yl)benzoyl]piperazine-1-carbonyl}cyclopropan-1-ol]
CC1Cc2ccccc2CN1c1ccc(C(=O)N2CCN(C(=O)C3(O)CC3)CC2)cc1 (stereo not shown) [1-{4-[4-(3-methyl-1,2,3,4-tetrahydroisoquinolin-2-yl)benzoyl]piperazine-1-carbonyl}cyclopropan-1-ol]
Cc1n[nH]c2cccc(-c3ccc(C(=O)N4CCN(C(=O)C5(O)CC5)CC4)cc3)c12 [1-{4-[4-(3-methyl-1H-indazol-4-yl)benzoyl]piperazine-1-carbonyl}cyclopropan-1-ol]
Cc1n[nH]c2cc(-c3ccc(C(=O)N4CCN(C(=O)C5(N)CC5)CC4)cc3)ccc12 [1-{4-[4-(3-methyl-1H-indazol-6-yl)benzoyl]piperazine-1-carbonyl}cyclopropan-1-amine]
Cc1n[nH]c2cc(-c3ccc(C(=O)N4CCN(C(=O)C5(O)CC5)CC4)cc3)ccc12 [1-{4-[4-(3-methyl-1H-indazol-6-yl)benzoyl]piperazine-1-carbonyl}cyclopropan-1-ol]
Cc1n[nH]c2c(-c3ccc(C(=O)N4CCN(C(=O)C5(O)CC5)CC4)cc3)cccc12 [1-{4-[4-(3-methyl-1H-indazol-7-yl)benzoyl]piperazine-1-carbonyl}cyclopropan-1-ol]
Cc1c2ccccc2nn1-c1ccc(C(=O)N2CCN(C(=O)C3(O)CC3)CC2)cc1 [1-{4-[4-(3-methyl-2H-indazol-2-yl)benzoyl]piperazine-1-carbonyl}cyclopropan-1-ol]
O=C(c1ccc(-c2ccc(Cl)cc2F)cc1F)N1CCN(C(=O)C2(O)CC2)CC1 [1-{4-[4-(4-chloro-2-fluorophenyl)-2-fluorobenzoyl]piperazine-1-carbonyl}cyclopropan-1-ol]
CC1(C)CN(C(=O)C2(O)CC2)CCN1C(=O)c1ccc(-c2ccc(Cl)cc2F)cc1 [1-{4-[4-(4-chloro-2-fluorophenyl)benzoyl]-3,3-dimethylpiperazine-1-carbonyl}cyclopropan-1-ol]
O=C(c1ccc(-c2ccc(Cl)cc2F)cc1)N1CCN(C(=O)C2(O)CC2)CC12CC2 [1-{4-[4-(4-chloro-2-fluorophenyl)benzoyl]-4,7-diazaspiro[2.5]octane-7-carbonyl}cyclopropan-1-ol]
O=C(c1ccc(N2CCc3c(F)cccc32)cc1)N1CCN(C(=O)C2(O)CC2)CC1 [1-{4-[4-(4-fluoro-2,3-dihydro-1H-indol-1-yl)benzoyl]piperazine-1-carbonyl}cyclopropan-1-ol]
O=C(c1ccc(N2Cc3cccc(F)c3C2)cc1)N1CCN(C(=O)C2(O)CC2)CC1 [1-{4-[4-(4-fluoro-2,3-dihydro-1H-isoindol-2-yl)benzoyl]piperazine-1-carbonyl}cyclopropan-1-ol]
NC1(C(=O)N2CCN(C(=O)c3ccc(-c4cc(Cl)ccc4F)cc3)CC2)CC1 [1-{4-[4-(5-chloro-2-fluorophenyl)benzoyl]piperazine-1-carbonyl}cyclopropan-1-amine]
O=C(c1ccc(N2CCc3cc(F)ccc32)cc1)N1CCN(C(=O)C2(O)CC2)CC1 [1-{4-[4-(5-fluoro-2,3-dihydro-1H-indol-1-yl)benzoyl]piperazine-1-carbonyl}cyclopropan-1-ol]
O=C(c1ccc(N2Cc3ccc(F)cc3C2)cc1)N1CCN(C(=O)C2(O)CC2)CC1 [1-{4-[4-(5-fluoro-2,3-dihydro-1H-isoindol-2-yl)benzoyl]piperazine-1-carbonyl}cyclopropan-1-ol]
